Measurements: the NIST ThermoML archive (doi:10.1021/acs.jced.5b00303)

Conditions: Pendant drop shape

CCCCn1cc[n+](C)c1.N#C[B-](C#N)(C#N)C#N [1-butyl-3-methyl-1H-imidazolium tetracyanoborate]
Conditions	surface tension liquid-gas [mN/m]
283.23 K	45.23
293.23 K	44.64
303.3 K	43.65
313.24 K	42.62
323.24 K	41.71
333.2 K	40.81
343.22 K	39.87
353.3 K	39.08

CCn1cc[n+](C)c1.N#C[B-](C#N)(C#N)C#N [1-ethyl-3-methylimidazolium tetracyanoborate]
Conditions	surface tension liquid-gas [mN/m]
283.1 K	49.66
293.26 K	48.72
303.35 K	47.57
313.29 K	46.45
323.2 K	45.67
333.09 K	44.87
343.12 K	44.04
353.45 K	43.4

CCn1cc[n+](C)c1.N#C[C-](C#N)C#N [1-ethyl-3-methyl-1H-imidazolium tricyanomethanide]
Conditions	surface tension liquid-gas [mN/m]
283.18 K	51.1
293.25 K	50.4
303.24 K	49.39
313.1 K	48.62
323.08 K	47.83
333.17 K	47.19
343.09 K	46.55
353.36 K	44.68

CCCCCCCCn1cc[n+](C)c1.N#CC(=C=[N-])C#N [1-methyl-3-octylimidazolium tricyanomethanide]
Conditions	surface tension liquid-gas [mN/m]
283.28 K	40.07
293.21 K	39.03
303.32 K	38.38
313.21 K	37.65
323.12 K	36.89
333.1 K	36.09
343.16 K	35.31
353.03 K	34.89

CCCCCC[n+]1ccn(C)c1.N#C[C-](C#N)C#N [3-hexyl-1-methylimidazolium tricyanomethanide]
Conditions	surface tension liquid-gas [mN/m]
283.23 K	44.44
293.35 K	43.55
303.33 K	42.88
313.26 K	42.09
323.25 K	41.49
333.18 K	40.8
343.11 K	39.91
353.53 K	39.07

CCCCCCn1cc[n+](C)c1.N#C[B-](C#N)(C#N)C#N [1-hexyl-3-methylimidazolium tetracyanoborate]
Conditions	surface tension liquid-gas [mN/m]
283.27 K	41.99
293.29 K	41.32
303.27 K	40.4
313.29 K	39.39
323.26 K	38.6
333.2 K	37.61
343.18 K	37
353.25 K	35.86

CCCCCCCCn1cc[n+](C)c1.N#C[B-](C#N)(C#N)C#N [1-methyl-3-octylimidazolium tetracyanoborate]
Conditions	surface tension liquid-gas [mN/m]
283.23 K	38.64
293.32 K	38.01
303.3 K	36.81
313.27 K	36.18
323.23 K	35.19
333.18 K	34.15
343.21 K	33.44
353.28 K	32.41

Cn1cc[n+](C)c1.N#C[B-](C#N)(C#N)C#N [1,3-dimethylimidazolium tetracyanoborate]
Conditions	surface tension liquid-gas [mN/m]
283.19 K	35.44
293.24 K	34.74
303.28 K	33.67
313.26 K	33.07
323.17 K	32.05
333.17 K	31.37
343.13 K	30.6
353.24 K	29.98
